In the NIST ThermoML archive (doi:10.1007/s10765-010-0766-0):
Several values for one entry are separate records, joined by “and”; a condition that tells them apart may be missing. Equal values may be shown once.

Test: molar heat capacity at constant volume; wn = mass fraction of the nth substance listed
Conditions: Liquid, Vacuum adiabatic calorimetry, w2 = 0.4981

FC(F)C(F)(F)F [pentafluoroethane] + FCF
Conditions | molar heat capacity at constant volume
277.15 K, 11982 kPa | 66.66 J/K/mol
278.15 K, 12826 kPa | 66.08 J/K/mol
279.15 K, 13669 kPa | 66.51 J/K/mol
280.15 K, 14512 kPa | 66.73 J/K/mol
281.15 K, 15355 kPa | 66.15 J/K/mol
282.15 K, 16198 kPa | 66.44 J/K/mol
283.15 K, 17040 kPa | 65.86 J/K/mol
284.15 K, 17881 kPa | 67.75 J/K/mol
285.15 K, 18722 kPa | 66.22 J/K/mol
286.15 K, 19563 kPa | 66.08 J/K/mol
287.15 K, 20403 kPa | 66.15 J/K/mol
288.15 K, 21239 kPa | 65.93 J/K/mol
289.15 K, 22077 kPa | 67.1 J/K/mol
291.15 K, 23750 kPa | 66.88 J/K/mol
292.15 K, 24585 kPa | 66.81 J/K/mol
293.15 K, 25420 kPa | 65.64 J/K/mol
294.15 K, 26254 kPa | 66.37 J/K/mol
295.15 K, 27085 kPa | 65.28 J/K/mol
296.15 K, 27917 kPa | 67.31 J/K/mol
297.15 K, 8118 kPa | 66.88 J/K/mol
297.15 K, 28747 kPa | 66.22 J/K/mol
298.15 K, 29575 kPa | 66.01 J/K/mol
299.15 K, 9422 kPa | 68.48 J/K/mol
300.15 K, 10072 kPa | 69.35 J/K/mol
300.15 K, 10089 kPa | 66.22 J/K/mol
301.15 K, 10723 kPa | 68.99 J/K/mol
301.15 K, 10737 kPa | 69.93 J/K/mol
302.15 K, 11374 kPa | 69.2 J/K/mol
302.15 K, 11385 kPa | 67.31 J/K/mol
303.15 K, 12024 kPa | 69.2 J/K/mol
303.15 K, 12032 kPa | 68.7 J/K/mol
304.15 K, 12672 kPa | 68.91 J/K/mol
304.15 K, 12680 kPa | 68.77 J/K/mol
305.15 K, 13320 kPa | 69.57 J/K/mol
305.15 K, 13327 kPa | 69.06 J/K/mol
306.15 K, 13970 kPa | 69.06 J/K/mol
306.15 K, 13973 kPa | 68.99 J/K/mol
307.15 K, 14620 kPa | 68.62 J/K/mol and 68.33 J/K/mol
308.15 K, 15268 kPa | 69.71 J/K/mol and 68.11 J/K/mol
309.15 K, 15915 kPa | 68.62 J/K/mol
309.15 K, 15917 kPa | 69.57 J/K/mol
310.15 K, 16562 kPa | 68.55 J/K/mol
310.15 K, 16564 kPa | 68.84 J/K/mol
311.15 K, 17208 kPa | 69.13 J/K/mol
311.15 K, 17212 kPa | 68.99 J/K/mol
312.15 K, 17853 kPa | 68.91 J/K/mol
312.15 K, 17859 kPa | 68.41 J/K/mol
313.15 K, 18499 kPa | 66.81 J/K/mol
313.15 K, 18506 kPa | 68.77 J/K/mol
314.15 K, 19144 kPa | 68.48 J/K/mol
314.15 K, 19153 kPa | 69.13 J/K/mol
315.15 K, 19788 kPa | 68.41 J/K/mol
315.15 K, 19798 kPa | 69.35 J/K/mol
316.15 K, 20432 kPa | 68.55 J/K/mol
316.15 K, 20443 kPa | 68.41 J/K/mol
317.15 K, 21075 kPa | 68.48 J/K/mol
317.15 K, 21088 kPa | 68.62 J/K/mol
318.15 K, 21719 kPa | 67.75 J/K/mol
318.15 K, 21733 kPa | 68.55 J/K/mol
319.15 K, 22362 kPa | 68.33 J/K/mol
319.15 K, 22377 kPa | 67.9 J/K/mol
320.15 K, 23005 kPa | 69.71 J/K/mol
320.15 K, 23021 kPa | 69.2 J/K/mol
321.15 K, 23648 kPa | 67.1 J/K/mol
321.15 K, 23665 kPa | 68.33 J/K/mol
322.15 K, 24289 kPa | 70.15 J/K/mol
322.15 K, 24307 kPa | 68.41 J/K/mol
323.15 K, 24930 kPa | 68.41 J/K/mol
323.15 K, 24949 kPa | 69.71 J/K/mol
324.15 K, 25571 kPa | 68.77 J/K/mol
324.15 K, 25590 kPa | 68.04 J/K/mol
325.15 K, 26210 kPa | 67.61 J/K/mol
325.15 K, 26231 kPa | 68.41 J/K/mol
326.15 K, 26850 kPa | 68.62 J/K/mol
326.15 K, 26871 kPa | 68.11 J/K/mol
327.15 K, 27488 kPa | 68.55 J/K/mol
327.15 K, 27511 kPa | 67.75 J/K/mol
328.15 K, 28127 kPa | 68.62 J/K/mol
328.15 K, 28150 kPa | 68.19 J/K/mol
329.15 K, 5865 kPa | 70.22 J/K/mol
329.15 K, 5904 kPa | 72.11 J/K/mol
329.15 K, 28764 kPa | 69.13 J/K/mol
329.15 K, 28790 kPa | 68.62 J/K/mol
330.15 K, 6231 kPa | 73.78 J/K/mol
330.15 K, 6255 kPa | 72.33 J/K/mol
330.15 K, 6269 kPa | 69.13 J/K/mol
330.15 K, 29402 kPa | 68.04 J/K/mol
330.15 K, 29426 kPa | 67.97 J/K/mol
331.15 K, 6598 kPa | 70.66 J/K/mol
331.15 K, 6620 kPa | 71.09 J/K/mol
331.15 K, 6635 kPa | 70.15 J/K/mol
331.15 K, 30065 kPa | 69.93 J/K/mol
332.15 K, 6965 kPa | 73.2 J/K/mol
332.15 K, 6987 kPa | 73.28 J/K/mol
332.15 K, 7002 kPa | 71.46 J/K/mol
333.15 K, 7333 kPa | 71.39 J/K/mol
333.15 K, 7355 kPa | 71.82 J/K/mol
333.15 K, 7370 kPa | 69.13 J/K/mol
334.15 K, 7700 kPa | 71.17 J/K/mol
334.15 K, 7723 kPa | 71.02 J/K/mol
334.15 K, 7736 kPa | 71.24 J/K/mol
335.15 K, 8069 kPa | 71.02 J/K/mol
335.15 K, 8090 kPa | 72.62 J/K/mol
335.15 K, 8104 kPa | 70.51 J/K/mol
336.15 K, 8438 kPa | 70.73 J/K/mol
336.15 K, 8457 kPa | 69.5 J/K/mol
336.15 K, 8472 kPa | 70.88 J/K/mol
337.15 K, 8807 kPa | 71.02 J/K/mol
337.15 K, 8826 kPa | 71.53 J/K/mol
337.15 K, 8840 kPa | 69.42 J/K/mol
338.15 K, 9176 kPa | 71.02 J/K/mol
338.15 K, 9194 kPa | 71.39 J/K/mol
338.15 K, 9209 kPa | 69.42 J/K/mol
339.15 K, 9546 kPa | 70.66 J/K/mol
339.15 K, 9563 kPa | 71.39 J/K/mol
339.15 K, 9579 kPa | 69.57 J/K/mol
340.15 K, 9916 kPa | 70.3 J/K/mol
340.15 K, 9933 kPa | 70.37 J/K/mol
340.15 K, 9949 kPa | 68.91 J/K/mol
341.15 K, 10286 kPa | 70.44 J/K/mol
341.15 K, 10302 kPa | 70.95 J/K/mol
341.15 K, 10320 kPa | 70.15 J/K/mol
342.15 K, 10657 kPa | 69.79 J/K/mol
342.15 K, 10672 kPa | 70.59 J/K/mol
342.15 K, 10691 kPa | 68.55 J/K/mol
343.15 K, 11028 kPa | 70.15 J/K/mol
343.15 K, 11043 kPa | 71.46 J/K/mol
343.15 K, 11061 kPa | 70.08 J/K/mol
344.15 K, 11399 kPa | 70.08 J/K/mol
344.15 K, 11413 kPa | 70.59 J/K/mol
344.15 K, 11431 kPa | 68.99 J/K/mol
345.15 K, 6187 kPa | 86.29 J/K/mol
345.15 K, 11770 kPa | 69.79 J/K/mol
345.15 K, 11784 kPa | 71.39 J/K/mol
345.15 K, 11802 kPa | 69.35 J/K/mol
346.15 K, 6420 kPa | 87.01 J/K/mol
346.15 K, 12143 kPa | 70.3 J/K/mol
346.15 K, 12155 kPa | 70.37 J/K/mol
346.15 K, 12174 kPa | 68.62 J/K/mol
347.15 K, 6655 kPa | 85.49 J/K/mol
347.15 K, 6657 kPa | 86.07 J/K/mol
347.15 K, 12515 kPa | 70.44 J/K/mol
347.15 K, 12527 kPa | 72.33 J/K/mol
347.15 K, 12547 kPa | 69.35 J/K/mol
348.15 K, 6890 kPa | 85.63 J/K/mol
348.15 K, 6893 kPa | 86.51 J/K/mol
348.15 K, 12887 kPa | 69.06 J/K/mol
348.15 K, 12899 kPa | 70.15 J/K/mol
348.15 K, 12919 kPa | 68.84 J/K/mol
349.15 K, 7127 kPa | 83.74 J/K/mol
349.15 K, 7130 kPa | 86.51 J/K/mol
349.15 K, 13259 kPa | 69.86 J/K/mol
349.15 K, 13271 kPa | 70.95 J/K/mol
349.15 K, 13292 kPa | 69.42 J/K/mol
350.15 K, 7364 kPa | 85.2 J/K/mol
350.15 K, 7368 kPa | 84.47 J/K/mol
350.15 K, 13631 kPa | 69.42 J/K/mol
350.15 K, 13643 kPa | 70.15 J/K/mol
350.15 K, 13664 kPa | 69.28 J/K/mol
351.15 K, 7602 kPa | 84.11 J/K/mol
351.15 K, 7606 kPa | 85.42 J/K/mol
351.15 K, 14004 kPa | 70.08 J/K/mol
351.15 K, 14015 kPa | 70.73 J/K/mol
351.15 K, 14036 kPa | 68.48 J/K/mol
352.15 K, 7841 kPa | 83.23 J/K/mol
352.15 K, 7845 kPa | 84.11 J/K/mol
352.15 K, 14377 kPa | 69.06 J/K/mol
352.15 K, 14387 kPa | 70.22 J/K/mol
352.15 K, 14409 kPa | 68.84 J/K/mol
353.15 K, 8080 kPa | 82.36 J/K/mol
353.15 K, 8084 kPa | 83.16 J/K/mol
353.15 K, 14750 kPa | 70.08 J/K/mol
353.15 K, 14761 kPa | 71.46 J/K/mol
353.15 K, 14783 kPa | 68.41 J/K/mol
354.15 K, 8320 kPa | 83.38 J/K/mol
354.15 K, 8324 kPa | 83.89 J/K/mol
354.15 K, 15123 kPa | 69.5 J/K/mol
354.15 K, 15133 kPa | 70.59 J/K/mol
354.15 K, 15157 kPa | 68.48 J/K/mol
355.15 K, 8560 kPa | 82.73 J/K/mol
355.15 K, 8565 kPa | 84.62 J/K/mol
355.15 K, 15496 kPa | 69.64 J/K/mol
355.15 K, 15507 kPa | 70.59 J/K/mol
355.15 K, 15531 kPa | 69.64 J/K/mol
356.15 K, 8801 kPa | 83.45 J/K/mol
356.15 K, 8806 kPa | 82.87 J/K/mol
356.15 K, 15869 kPa | 70.59 J/K/mol
356.15 K, 15880 kPa | 69.93 J/K/mol
356.15 K, 15904 kPa | 68.99 J/K/mol
